Results published in ChEMBL document CHEMBL3526033, “Identification of human liver cytochrome P450 enzymes involved in the metabolism of SCH 530348 (Vorapaxar), a potent oral thrombin protease-activated receptor 1 antagonist” (Drug Metab Dispos, 2011).

How the values were obtained:
Assay type in all cases: ADME
Conditions in all cases: 2 h
[1] = biological target: T1, Cytochrome P450 1A2 (Homo sapiens, UniProt P05177); assay: Activity of human recombinant CYP1A2 assessed as enzyme-mediated drug metabolism treated with 25 uM vorapaxar after 120 mins by LC-MS/MS analysis in presence of NADPH
T1 sequence (P05177 whole entry): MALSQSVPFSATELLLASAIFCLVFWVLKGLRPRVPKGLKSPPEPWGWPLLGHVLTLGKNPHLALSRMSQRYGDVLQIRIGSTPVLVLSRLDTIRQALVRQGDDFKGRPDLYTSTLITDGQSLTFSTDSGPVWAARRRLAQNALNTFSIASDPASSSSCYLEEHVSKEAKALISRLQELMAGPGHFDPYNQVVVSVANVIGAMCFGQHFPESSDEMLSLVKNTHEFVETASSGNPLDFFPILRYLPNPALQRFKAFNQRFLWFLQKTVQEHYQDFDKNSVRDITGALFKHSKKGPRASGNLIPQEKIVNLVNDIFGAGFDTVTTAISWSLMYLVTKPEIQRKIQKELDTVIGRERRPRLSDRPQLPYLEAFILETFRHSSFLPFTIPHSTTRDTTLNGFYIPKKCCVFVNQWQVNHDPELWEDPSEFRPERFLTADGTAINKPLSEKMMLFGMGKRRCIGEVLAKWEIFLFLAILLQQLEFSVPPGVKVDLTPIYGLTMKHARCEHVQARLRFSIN

[2] = biological target: T2, Cytochrome P450 3A5 (Homo sapiens, UniProt P20815); assay: Activity of human recombinant CYP3A5 assessed as enzyme-mediated drug metabolism treated with 25 uM vorapaxar after 120 mins by LC-MS/MS analysis in presence of NADPH
[3] = test system: Liver microsome; assay: Drug metabolism in human liver microsomes assessed as (3R,3aS,4S,4aR,7R,8aR,9aR)-7-amino-4-((E)-2-(5-(3-fluorophenyl)pyridin-2-yl)vinyl)-3-methyldecahydronaphtho[2,3-c]furan-1(3H)-one formation at 10 to 25 uM after 120 mins by LC-MS/MS analysis in presence of CYP3A4-specific inhibitory monoclonal antibody
[4] = biological target: T2, Cytochrome P450 3A5; assay: Activity of human recombinant CYP3A5 assessed as enzyme-mediated (3R,3aS,4S,4aR,7R,8aR,9aR)-7-amino-4-((E)-2-(5-(3-fluorophenyl)pyridin-2-yl)vinyl)-3-methyldecahydronaphtho[2,3-c]furan-1(3H)-one formation at 25 uM after 120 mins by LC-MS/MS analysis in presence of NADPH
[5] = biological target: T3, Cytochrome P450 3A4 (Homo sapiens, UniProt P08684); assay: Activity of human recombinant CYP3A4 assessed as enzyme-mediated 2-hydroxyethyl (1R,3aR,4aR,6R,8aR,9S,9aS)-9-((E)-2-(5-(3-fluorophenyl)pyridin-2-yl)vinyl)-1-methyl-3-oxododecahydronaphtho[2,3-c]furan-6-ylcarbamate formation at 25 uM after 120 mins by LC-MS/MS analysis in presence of NADPH
[6] = biological target: T4, Cytochrome P450 2J2 (Homo sapiens, UniProt P51589); assay: Activity of human recombinant CYP2J2 assessed as enzyme-mediated 2-hydroxyethyl (1R,3aR,4aR,6R,8aR,9S,9aS)-9-((E)-2-(5-(3-fluorophenyl)pyridin-2-yl)vinyl)-1-methyl-3-oxododecahydronaphtho[2,3-c]furan-6-ylcarbamate formation at 25 uM after 120 mins by LC-MS/MS analysis in presence of NADPH
T4 sequence (P51589 whole entry): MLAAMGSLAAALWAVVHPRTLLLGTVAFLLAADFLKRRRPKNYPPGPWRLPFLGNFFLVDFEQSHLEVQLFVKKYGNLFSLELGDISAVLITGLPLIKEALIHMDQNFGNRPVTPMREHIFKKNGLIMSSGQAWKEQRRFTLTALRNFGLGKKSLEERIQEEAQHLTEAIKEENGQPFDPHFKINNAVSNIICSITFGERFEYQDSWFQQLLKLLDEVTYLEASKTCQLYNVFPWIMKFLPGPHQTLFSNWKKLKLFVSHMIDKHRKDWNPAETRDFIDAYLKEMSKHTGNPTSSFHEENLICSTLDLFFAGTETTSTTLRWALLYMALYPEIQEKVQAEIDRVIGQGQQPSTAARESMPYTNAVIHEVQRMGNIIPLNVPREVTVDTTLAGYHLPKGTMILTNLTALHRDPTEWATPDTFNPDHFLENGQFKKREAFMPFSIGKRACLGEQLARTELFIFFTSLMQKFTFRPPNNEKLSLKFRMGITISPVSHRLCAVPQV

[7] = biological target: T5, Cytochrome P450 1A1 (Homo sapiens, UniProt P04798); assay: Activity of human recombinant CYP1A1 assessed as enzyme-mediated 2-hydroxyethyl (1R,3aR,4aR,6R,8aR,9S,9aS)-9-((E)-2-(5-(3-fluorophenyl)pyridin-2-yl)vinyl)-1-methyl-3-oxododecahydronaphtho[2,3-c]furan-6-ylcarbamate formation at 25 uM after 120 mins by LC-MS/MS analysis in presence of NADPH
T5 sequence (P04798 whole entry): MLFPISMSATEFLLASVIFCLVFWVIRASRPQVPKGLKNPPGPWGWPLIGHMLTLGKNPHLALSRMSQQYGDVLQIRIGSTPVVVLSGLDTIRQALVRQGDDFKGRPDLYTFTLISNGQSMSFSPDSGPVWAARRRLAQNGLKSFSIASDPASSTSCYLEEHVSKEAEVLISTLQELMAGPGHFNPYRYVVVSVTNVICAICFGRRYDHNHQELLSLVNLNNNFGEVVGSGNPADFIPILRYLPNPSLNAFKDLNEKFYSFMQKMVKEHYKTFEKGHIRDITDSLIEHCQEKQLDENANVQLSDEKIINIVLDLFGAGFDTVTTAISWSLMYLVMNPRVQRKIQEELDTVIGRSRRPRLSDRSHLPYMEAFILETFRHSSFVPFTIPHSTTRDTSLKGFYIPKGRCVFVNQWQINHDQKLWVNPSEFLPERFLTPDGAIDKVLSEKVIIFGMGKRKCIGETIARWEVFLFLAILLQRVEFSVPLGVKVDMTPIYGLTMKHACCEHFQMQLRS

[8] = biological target: Cytochrome P450 2D6 (Homo sapiens, UniProt P10635); assay: Activity of human recombinant CYP2D6 assessed as enzyme-mediated 2-hydroxyethyl (1R,3aR,4aR,6R,8aR,9S,9aS)-9-((E)-2-(5-(3-fluorophenyl)pyridin-2-yl)vinyl)-1-methyl-3-oxododecahydronaphtho[2,3-c]furan-6-ylcarbamate formation at 25 uM after 120 mins by LC-MS/MS analysis in presence of NADPH
[9] = biological target: T3, Cytochrome P450 3A4; assay: Activity of human recombinant CYP3A4 assessed as enzyme-mediated (3R,3aS,4S,4aR,7R,8aR,9aR)-7-amino-4-((E)-2-(5-(3-fluorophenyl)pyridin-2-yl)vinyl)-3-methyldecahydronaphtho[2,3-c]furan-1(3H)-one formation assessed per nmol of enzyme at 10 uM after 120 mins by LC-MS/MS analysis in presence of NADPH
[10] = biological target: T5, Cytochrome P450 1A1; assay: Activity of human recombinant CYP1A1 assessed as enzyme-mediated drug metabolism at 10 uM after 120 mins by LC-MS/MS analysis
[11] = test system: Liver microsome; assay: Intrinsic clearance in human liver microsomes assessed as (3R,3aS,4S,4aR,7R,8aR,9aR)-7-amino-4-((E)-2-(5-(3-fluorophenyl)pyridin-2-yl)vinyl)-3-methyldecahydronaphtho[2,3-c]furan-1(3H)-one formation by measuring Vmax/Km per nmol of enzyme after 120 mins by LC-MS/MS analysis

T3 sequence (P08684 whole entry): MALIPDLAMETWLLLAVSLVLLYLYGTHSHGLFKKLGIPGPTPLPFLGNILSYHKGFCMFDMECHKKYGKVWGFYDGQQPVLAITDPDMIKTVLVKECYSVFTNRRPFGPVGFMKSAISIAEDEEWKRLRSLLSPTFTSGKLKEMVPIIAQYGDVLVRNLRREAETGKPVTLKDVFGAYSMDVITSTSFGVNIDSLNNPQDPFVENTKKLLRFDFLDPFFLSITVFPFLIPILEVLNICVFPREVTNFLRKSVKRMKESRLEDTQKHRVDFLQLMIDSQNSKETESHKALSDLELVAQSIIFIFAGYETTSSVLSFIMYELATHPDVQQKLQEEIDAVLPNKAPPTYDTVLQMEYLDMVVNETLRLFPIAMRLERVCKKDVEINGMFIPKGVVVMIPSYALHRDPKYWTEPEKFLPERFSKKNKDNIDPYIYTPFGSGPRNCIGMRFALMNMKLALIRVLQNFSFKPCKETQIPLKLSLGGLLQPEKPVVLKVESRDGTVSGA
T2 sequence (P20815 whole entry): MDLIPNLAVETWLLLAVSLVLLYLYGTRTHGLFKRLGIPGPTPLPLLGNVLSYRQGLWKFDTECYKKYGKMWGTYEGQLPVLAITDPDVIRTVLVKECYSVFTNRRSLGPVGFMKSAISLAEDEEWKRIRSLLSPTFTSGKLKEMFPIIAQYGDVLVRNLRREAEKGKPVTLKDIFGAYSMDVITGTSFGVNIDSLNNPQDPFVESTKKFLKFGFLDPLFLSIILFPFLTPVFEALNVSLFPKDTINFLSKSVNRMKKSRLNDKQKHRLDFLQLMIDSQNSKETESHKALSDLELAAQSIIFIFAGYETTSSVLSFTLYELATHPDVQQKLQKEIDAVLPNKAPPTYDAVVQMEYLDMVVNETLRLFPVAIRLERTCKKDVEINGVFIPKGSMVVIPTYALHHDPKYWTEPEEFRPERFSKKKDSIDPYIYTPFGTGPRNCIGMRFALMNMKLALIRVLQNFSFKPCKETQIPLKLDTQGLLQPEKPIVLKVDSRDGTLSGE
Sequence of Cytochrome P450 2D6 (P10635 whole entry): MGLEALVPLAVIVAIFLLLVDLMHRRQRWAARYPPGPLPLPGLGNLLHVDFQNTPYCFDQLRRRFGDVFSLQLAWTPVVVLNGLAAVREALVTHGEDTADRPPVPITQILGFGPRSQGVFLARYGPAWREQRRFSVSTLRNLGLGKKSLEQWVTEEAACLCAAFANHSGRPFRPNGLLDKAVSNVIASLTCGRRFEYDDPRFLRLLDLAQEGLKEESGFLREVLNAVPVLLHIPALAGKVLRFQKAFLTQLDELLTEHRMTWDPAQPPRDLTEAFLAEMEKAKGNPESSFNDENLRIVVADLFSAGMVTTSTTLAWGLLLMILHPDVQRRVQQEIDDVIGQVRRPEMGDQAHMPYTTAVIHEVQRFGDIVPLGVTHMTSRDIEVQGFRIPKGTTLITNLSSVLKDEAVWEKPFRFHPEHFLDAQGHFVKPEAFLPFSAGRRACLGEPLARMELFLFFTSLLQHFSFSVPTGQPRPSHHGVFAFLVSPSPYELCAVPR

`C[C@H]1OC(=O)[C@@H]2C[C@@H]3C[C@H](NC(=O)OCCO)CC[C@H]3[C@H](/C=C/c3ccc(-c4cccc(F)c4)cn3)[C@H]12` was tested, and the Drug metabolism [1] was “metabolite_detected” and the Drug metabolism [2] was “metabolite_detected”.
For `CCOC(=O)N[C@@H]1CC[C@@H]2[C@@H](C1)C[C@H]1C(=O)O[C@H](C)[C@H]1[C@H]2/C=C/c1ccc(-c2cccc(F)c2)cn1` [VORAPAXAR], the Drug metabolism [3] was “metabolite_not_detected”.
`CCOC(=O)N[C@@H]1CC[C@@H]2[C@@H](C1)C[C@H]1C(=O)O[C@H](C)[C@H]1[C@H]2/C=[14CH]/c1ccc(-c2cccc(F)c2)cn1` was tested, and the Drug metabolism [4] was “metabolite_detected”, the Drug metabolism [5] was “metabolite_detected” and the Drug metabolism [6] was “metabolite_detected”. For the same compound, the Drug metabolism [7] was “metabolite_detected”, the Drug metabolism [8] was “metabolite_detected” and the Drug metabolism [9] was 109.8 pmol/min. The Drug metabolism [10] was “metabolite_not_detected” and the CLH [11] was 2.46 µL/min.
